Article PMC9667936, “Functional mapping of the 14-3-3 hub protein as a guide to design 14-3-3 molecular glues” (Chemical Science, 2022)
Where a SMILES comes first, the peptide text is derived from it. [ ]: non-standard residue; d: D form. The star is where a group is joined. ξ: configuration not given here. FITC = O=C1OC2(c3ccc(O)cc3Oc3cc(O)ccc32)c2ccc(NC(=S)*)cc21; Phe(4-NO2) = N[C@@H](Cc1ccc([N+](=O)[O-])cc1)C(=O)O; ξAla(4-thiazolyl) = NC(Cc1cscn1)C(=O)O; pS = N[C@@H](COP(=O)(O)O)C(=O)O; β3hS = N[C@@H](CO)CC(=O)O; Nva = CCC[C@H](N)C(=O)O; βAla = NCCC(=O)O

Molecular target: T1, 14-3-3γ (Homo sapiens, UniProt P61981)
T1 construct: made in house; host or cells: E. coli NiCo21 (DE3)
T1 sequence (P61981 1-247): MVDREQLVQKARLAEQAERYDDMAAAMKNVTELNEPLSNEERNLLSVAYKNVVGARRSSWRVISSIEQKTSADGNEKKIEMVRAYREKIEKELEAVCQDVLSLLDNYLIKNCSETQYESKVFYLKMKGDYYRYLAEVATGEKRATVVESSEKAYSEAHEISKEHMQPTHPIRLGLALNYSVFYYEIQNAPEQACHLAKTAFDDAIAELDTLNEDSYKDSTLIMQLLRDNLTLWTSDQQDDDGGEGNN
Assay: Fluorescence anisotropy (FA) binary binding study: 14-3-3 titrated to fluorescein-labelled peptide
Conditions: for individual ΔΔG of removed residue: ΔG relative to the previously truncated peptide; for Affinity Kd / Kd: Table S4, point-mutated peptides; for Affinity Kd: 10 nM FITC-labelled peptide; for Kd: 14-3-3 titrated to 10 nM FITC-labelled peptide, HEPES pH 7.4, room temperature, 4PL fit, read-out: Affinity Kd
Protocol: 14-3-3γ protein expression (FP/ITC experiments)
(§1) A pPROEX HTb expression vector encoding the human 14-3-3 protein gamma (14-3-3γ) with an N-terminal his6-tag was transformed by heat shock into NiCo21 (DE3) competent cells. Single colonies were cultured in 50 mL LB medium (100 µg/mL ampicillin). After overnight incubation at 37 °C, cultures were transferred to 2 L TB media (100 µg/mL ampicillin, 1 mM MgCl2) and incubated at 37 °C until an OD600 nm of 0.8-1.2 was reached. Protein expression was then induced with 0.4 mM isopropyl-β-d-thiogalactoside (IPTG), and cultures were incubated overnight at 18 °C. Cells were harvested by centrifugation (8600 rpm, 20 minutes, 4 °C) and resuspended in lysis buffer (50 mM Hepes, pH 8.0, 300 mM NaCl, 12.5 mM imidazole, 5 mM MgCl2, 2 mM βME) containing cOmplete™ EDTA-free Protease Inhibitor Cocktail tablets (1 tablet/100 ml lysate) and benzonase (1 µl/100 ml). After lysis using a C3 Emulsiflex-C3 homogenizer (Avestin), the cell lysate was cleared by centrifugation (20000 rpm, 30 minutes, 4 °C) and purified using Ni2+-affinity chromatography (Ni-NTA superflow cartridges, Qiagen).
Typically two 5 mL columns (flow 5 mL/min) were used for a 2 L culture in which the lysate was loaded on the column washed with 10 CV wash buffer (50 mM Hepes, pH 8.0, 300 mM NaCl, 25 mM imidazole, 2 mM βME) and eluted in several fractions (2-4 CV) of elution buffer (50 mM Hepes, pH 8.0, 300 mM NaCl, 250 mM imidazole, 2 mM βME). Fractions containing the 14-3-3 protein were combined and dialyzed into 25 mM HEPES pH 8.0, 100 mM NaCl, 10 mM MgCl2, 500 µM TCEP. Finally, the protein was concentrated to ∼60 mg/mL, analyzed Q-Tof LC/MS, and aliquots were flash-frozen for storage at […]
as §1, with “sigma truncated after T231 (14-3-3σΔc) and” for “gamma (14-3-3γ)”, “tablet/ 100” for “tablet/100”, “µl/ 100” for “µl/100”, “ml).” for “ml). After lysis using a C3 Emulsiflex-C3 homogenizer (Avestin), the cell lysate was cleared by centrifugation (20000 rpm, 30 minutes, 4 °C) and purified using Ni2+-affinity chromatography (Ni-NTA superflow cartridges, Qiagen).”
After lysis using a C3 Emulsiflex-C3 homogenizer (Avestin), the cell lysate was cleared by centrifugation (20000 rpm, 30 minutes, 4 °C) and purified using Ni2+-affinity chromatography (Ni-NTA superflow cartridges, Qiagen). Typically two 5 mL columns were used for a 2 L culture in which the lysate was loaded on the column washed with 10 CV wash buffer (50 mM Hepes, pH 8.0, 300 mM NaCl, 25 mM imidazole, 2 mM βME) and eluted with several fractions (2-4 CV) of elution buffer (50 mM Hepes, pH 8.0, 300 mM NaCl, 250 mM imidazole, 2 mM βME). Fractions containing the 14-3-3 protein were combined and dialyzed into 25 mM HEPES pH 8.0, 200 mM NaCl, 10 mM MgCl2, 2 mM βME. In addition, 1 mg TEV was added for each 100 mg purified protein to remove the purification tag. The cleaved sample was then again loaded on a 10 mL Ni-NTA column to separate the cleaved product from the expression tag and residual uncleaved protein. The flowthrough was loaded on a Superdex 75 pg 16/60 size exclusion column (GE Life Sciences) using 25 mM HEPES, 100 mM NaCl, 10 mM MgCl2, 500 μM TCEP (adjusted to pH=8.0) as running buffer. Fractions containing the 14-3-3 protein were pooled and concentrated to ∼60 mg/mL, analyzed Q-Tof LC/MS, and aliquots were flash-frozen for storage at −80 […]
The peptides 1 and 2a-d were synthesized on 50 µmol scale on a Rink amide MBHA resin […]

[1] = Table S2, FA KD of peptide divided by KD of previous (one amino acid longer) peptide, mean of n = 3
[2] = Table S2, KD / KD of previous (one amino acid longer) peptide, replicate 1
[3] = Table S2, KD / KD of previous (one amino acid longer) peptide, replicate 2
[4] = Table S2, KD / KD of previous (one amino acid longer) peptide, replicate 3
[5] = Table S2, calculated from FA KD, mean of n = 3
[6] = Table S2, from FA KD, replicate 1
[7] = Table S2, from FA KD, replicate 2
[8] = Table S2, from FA KD, replicate 3
[9] = Table S2, ΔG minus ΔG of previous peptide, FA, replicate 1
[10] = Table S2, ΔG minus ΔG of previous peptide, FA, replicate 2
[11] = Table S2, ΔG minus ΔG of previous peptide, FA, replicate 3
[12] = Table S2, ΔG of peptide minus ΔG of previous (one amino acid longer) peptide, FA, mean of n = 3
[13] = Table S4, FA Kd / Kd of 1, replicate 1
[14] = Table S4, FA Kd / Kd of 1, replicate 2
[15] = Table S4, FA Kd / Kd of 1, replicate 3
[16] = Table S4, FA Kd of peptide divided by Kd of 1, mean of n = 3
[17] = Table S4, calculated from FA Kd, mean of n = 3
[18] = Table S4, from FA Kd, replicate 1
[19] = Table S4, from FA Kd, replicate 2
[20] = Table S4, from FA Kd, replicate 3
[21] = Table S4, ΔG minus ΔG of 1, FA, replicate 1
[22] = Table S4, ΔG minus ΔG of 1, FA, replicate 2
[23] = Table S4, ΔG minus ΔG of 1, FA, replicate 3
[24] = Table S4, ΔG of peptide minus ΔG of 1, FA, mean of n = 3

Compound	individual ΔΔG of removed residue (FA)	Fold change to previous [1]	Fold change to previous [2]	Fold change to previous [3]	Fold change to previous [4]	ΔG [5]	ΔG [6]	ΔG [7]	ΔG [8]	ΔΔG (to previous) [9]	ΔΔG (to previous) [10]	ΔΔG (to previous) [11]	ΔΔG (to previous) [12]	Affinity Kd (FA, replicate 1) [nM]	Affinity Kd (FA, replicate 2) [nM]	Affinity Kd (FA, replicate 3) [nM]	Kd (FA, mean of n = 3) [nM]	Fold change to 1 [13]	Fold change to 1 [14]	Fold change to 1 [15]	further results
C[C@H](NC(=O)[C@H](CCCCN)NC(=O)[C@H](Cc1ccc([N+](=O)[O-])cc1)NC(=O)CCNC(=O)C[C@H](CO)NC(=O)[C@H](Cc1ccc([N+](=O)[O-])cc1)NC(=O)[C@H](COP(=O)(O)O)NC(=O)C(N)Cc1cscn1)C(=O)N[C@@H](CCCCNC(=S)Nc1ccc2c(c1)C(=O)OC21c2ccc(O)cc2Oc2cc(O)ccc21)C(N)=O (stereo partly drawn) [2c] (H-[ξAla(4-thiazolyl)][pS][Phe(4-NO2)][β3hS][βAla][Phe(4-NO2)]KAK(FITC)-NH2)	only minor energy contributions	0,53	0,51	0,53	0,56	-9,90 kcal/mol	-9,93 kcal/mol	-9,88 kcal/mol	-9,88 kcal/mol	-0,40 kcal/mol	-0,38 kcal/mol	-0,34 kcal/mol	-0,37 kcal/mol								
C[C@H](NC(=O)[C@H](CCCCN)NC(=O)[C@H](Cc1ccc([N+](=O)[O-])cc1)NC(=O)CCNC(=O)C[C@H](CO)NC(=O)[C@H](Cc1ccc([N+](=O)[O-])cc1)NC(=O)[C@@H](N)COP(=O)(O)O)C(=O)N[C@@H](CCCCNC(=S)Nc1ccc2c(c1)C(=O)OC21c2ccc(O)cc2Oc2cc(O)ccc21)C(N)=O [2d] (H-[pS][Phe(4-NO2)][β3hS][βAla][Phe(4-NO2)]KAK(FITC)-NH2)	2.2 kcal/mol	43,23	40,69	45,81	43,18	-7,67 kcal/mol	-7,74 kcal/mol	-7,61 kcal/mol	-7,65 kcal/mol	2,19 kcal/mol	2,26 kcal/mol	2,23 kcal/mol	2,23 kcal/mol								fold change in binding affinity on truncation (FA KD relative to the previous (one amino acid longer) peptide): 43 fold; cumulative ΔΔG of truncating the entire N- or C-terminus (FA, relative to peptide 1 (2d: entire N-terminus; 2i: entire C-terminus)): 2.9 kcal/mol; ΔΔG N-term (cumulative, whole N-terminus removed) (Table S2, N-term = 2d relative to 1, FA, mean of n = 3): 2,86 kcal/mol; ΔΔG N-term (cumulative) (Table S2, N-term = 2d relative to 1, FA, replicate 1): 2,88 kcal/mol; ΔΔG N-term (cumulative) (Table S2, N-term = 2d relative to 1, FA, replicate 2): 2,94 kcal/mol; ΔΔG N-term (cumulative) (Table S2, N-term = 2d relative to 1, FA, replicate 3): 2,75 kcal/mol
CCC[C@H](NC(=O)[C@H](N)CCCCN)C(=O)N[C@@H](Cc1ccc([N+](=O)[O-])cc1)C(=O)N[C@@H](C)C(=O)N[C@@H](COP(=O)(O)O)C(=O)N[C@@H](Cc1ccc([N+](=O)[O-])cc1)C(=O)N[C@@H](CO)CC(=O)NCCC(=O)N[C@@H](Cc1ccc([N+](=O)[O-])cc1)C(=O)N[C@@H](CCCCN)C(N)=O [3a] (H-[dK][Nva][Phe(4-NO2)]A[pS][Phe(4-NO2)][β3hS][βAla][Phe(4-NO2)]K-NH2; N-terminus and C-terminus assumed)														100	42	72	71	1.9	0.6	1.0	ΔΔG of point mutation (FA) (FA, relative to 1, mean ± SD, SD): 0.0 ± 0.4 kcal/mol; Fold change to 1 [16]: 1.2; ΔG [17]: -9.8 kcal/mol; ΔG [18]: -9.5 kcal/mol; ΔG [19]: -10.1 kcal/mol; ΔG [20]: -9.7 kcal/mol; ΔΔG to 1 [21]: 0.4 kcal/mol; ΔΔG to 1 [22]: -0.3 kcal/mol; ΔΔG to 1 [23]: 0.0 kcal/mol; ΔΔG to 1 [24]: 0.0 kcal/mol
CCC[C@H](NC(=O)[C@H](N)CCCCN)C(=O)N[C@@H](Cc1ccc([N+](=O)[O-])cc1)C(=O)NC(Cc1cscn1)C(=O)N[C@@H](COP(=O)(O)O)C(=O)N[C@@H](Cc1ccc(O)cc1)C(=O)N[C@@H](CO)CC(=O)NCCC(=O)N[C@@H](Cc1ccc([N+](=O)[O-])cc1)C(=O)N[C@@H](CCCCN)C(N)=O (stereo partly drawn) [4a] (H-[dK][Nva][Phe(4-NO2)][ξAla(4-thiazolyl)][pS]Y[β3hS][βAla][Phe(4-NO2)]K-NH2; N-terminus and C-terminus assumed)														47	41	63	50	0.9	0.6	0.9	Fold change to 1 [16]: 0.8; ΔG [17]: -10.0 kcal/mol; ΔG [18]: -10.0 kcal/mol; ΔG [19]: -10.1 kcal/mol; ΔG [20]: -9.8 kcal/mol; ΔΔG to 1 [21]: -0.1 kcal/mol; ΔΔG to 1 [22]: -0.3 kcal/mol; ΔΔG to 1 [23]: -0.1 kcal/mol; ΔΔG to 1 [24]: -0.2 kcal/mol
